In patent US4822799A, “Pyrazolopyridine analogs of mevalonolactone and derivatives thereof useful for inhibiting cholesterol biosynthesis in mammals” (Sandoz Pharm. Corp., priority 1988, dated 1989):

How the values were obtained:
[1] = test system: 3β-hydroxysterol synthesis; test: Test B. In Vivo Cholesterol Biosynthesis Inhibition Test; conditions: Rattus norvegicus, po, rats, orally administered, 0.1-200 mg/kg. body weight, read-out: ED50 (50% inhibition of 3β-hydroxysterol synthesis)
Experimental: Test B. In Vivo Cholesterol Biosynthesis Inhibition Test:
In this test the rats are orally administered the test substance (compound of Formula I) at a dose of 0.1-200 mg/kg. body weight. The obtained ED50 is the dose of the test substance observed or calculated to produce a 50% inhibition of 3β-hydroxysterol synthesis.

[2] = target: T1, 3-hydroxy-3-methylglutaryl coenzyme A (HMG-CoA) reductase (Rattus norvegicus, UniProt P51639); test: Test A. In Vitro Microsomal Assay of HMG-CoA Reductase Inhibition; type: biochemical; conditions: test substance 0.001-2,000 μmolar, read-out: IC50 (50% inhibition of HMG-CoA reductase activity)
T1 construct: from tissue; host or cells: liver microsomes of Sprague-Dawley rats (tissue and species from own knowledge of the cited documents)
T1 sequence (P51639 1-887): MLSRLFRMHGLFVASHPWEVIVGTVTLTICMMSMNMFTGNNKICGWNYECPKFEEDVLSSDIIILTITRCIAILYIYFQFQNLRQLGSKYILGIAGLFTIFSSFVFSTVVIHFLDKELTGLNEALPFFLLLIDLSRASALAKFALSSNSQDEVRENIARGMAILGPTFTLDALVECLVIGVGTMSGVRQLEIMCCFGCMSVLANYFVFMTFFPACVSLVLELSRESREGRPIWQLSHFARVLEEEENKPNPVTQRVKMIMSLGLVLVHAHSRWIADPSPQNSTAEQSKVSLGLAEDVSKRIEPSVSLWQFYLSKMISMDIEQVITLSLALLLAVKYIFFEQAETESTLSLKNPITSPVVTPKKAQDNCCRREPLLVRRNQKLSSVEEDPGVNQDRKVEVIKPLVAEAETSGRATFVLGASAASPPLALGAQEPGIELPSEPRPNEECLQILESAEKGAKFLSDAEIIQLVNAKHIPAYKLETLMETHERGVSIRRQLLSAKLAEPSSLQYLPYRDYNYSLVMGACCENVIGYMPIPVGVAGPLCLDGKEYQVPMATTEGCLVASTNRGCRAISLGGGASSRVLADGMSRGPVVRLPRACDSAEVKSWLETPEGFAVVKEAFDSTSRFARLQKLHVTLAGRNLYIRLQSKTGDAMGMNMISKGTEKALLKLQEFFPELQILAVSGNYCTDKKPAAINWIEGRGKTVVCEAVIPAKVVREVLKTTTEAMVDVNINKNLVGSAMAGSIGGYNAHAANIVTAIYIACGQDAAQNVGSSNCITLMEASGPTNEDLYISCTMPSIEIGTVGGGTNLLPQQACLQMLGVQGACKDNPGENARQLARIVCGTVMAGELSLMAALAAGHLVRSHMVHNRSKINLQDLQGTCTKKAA
Experimental: Test A. In Vitro Microsomal Assay of HMG-CoA Reductase Inhibition:
This test is carried out precisely as described in column 53 of U.S. Pat. No. 4,613,610 and on page 30 of World (PCT) Published patent application No. 84/02131, both of which are hereby incorporated by reference as if set forth herein in their entirety. The concentration of the test substance (compound of Formula I) in the assay system is 0.001-2,000 μmolar. The obtained IC50 is the concentration of the test substance in the assay system observed or calculated to produce a 50% inhibition of HMG-CoA reductase activity.

SMILES: CC[C@H](C)C(=O)O[C@H]1CCC=C2C=C[C@H](C)[C@H](CC[C@@H]3C[C@@H](O)CC(=O)O3)[C@H]21 [Compactin]
- ED50 [1]: 3.5 mg/kg

SMILES: CC[C@H](C)C(=O)O[C@H]1C[C@@H](C)C=C2C=C[C@H](C)[C@H](CC[C@@H]3C[C@@H](O)CC(=O)O3)[C@H]21 [Mevinolin]
- ED50 [1]: 0.38 mg/kg

SMILES: Cc1nn(C)c2nc(C(C)C)c(/C=C/[C@@H](O)C[C@@H](O)CC(=O)O)c(-c3ccc(F)cc3)c12 [Example 2, Sodium (3R,5S)-(E)-3,5-dihydroxy-7-[1',3'-dimethyl-4'-(4"-fluorophenyl)-6'-(1"-methylethyl)-1H-pyrazolo[3,4-b]pyrid-5'-yl]hept-6-enoate]
- IC50 [2]: 10 nM
